# Test system: not listed separately
# Assay: Drug level in Sprague-Dawley rat brain at 10 mg/kg, po after 4 hrs
# Type: ADME, organism-based
# Parameters: dose 10 mg/kg, route oral
row,SMILES,concentration at 4 h [ng/g]
1,CN(C)c1nc(N[C@H]2CC[C@@H](NC(=O)c3ccc(F)c(F)c3)CC2)nc2ccccc12,70

# Molecular target: T1, Alpha-2A adrenergic receptor (Homo sapiens, UniProt P08913)
# T1 sequence (P08913 whole entry): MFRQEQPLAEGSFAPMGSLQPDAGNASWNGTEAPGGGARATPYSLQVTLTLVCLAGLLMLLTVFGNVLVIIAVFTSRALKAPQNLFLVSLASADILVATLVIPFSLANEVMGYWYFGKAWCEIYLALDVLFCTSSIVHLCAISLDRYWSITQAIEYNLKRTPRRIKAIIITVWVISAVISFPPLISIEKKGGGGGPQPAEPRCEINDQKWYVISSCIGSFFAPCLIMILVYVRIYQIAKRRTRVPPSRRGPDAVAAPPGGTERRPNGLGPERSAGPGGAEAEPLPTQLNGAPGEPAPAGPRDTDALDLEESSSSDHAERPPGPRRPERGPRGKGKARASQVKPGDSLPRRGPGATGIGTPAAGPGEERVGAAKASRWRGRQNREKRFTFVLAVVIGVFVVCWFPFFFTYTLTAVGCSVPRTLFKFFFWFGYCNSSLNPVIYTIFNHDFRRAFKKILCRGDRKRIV
# Assay: Displacement of [3H]MK-912 from human adrenergic alpha2A receptor
row,SMILES,IC50 [nM]
1,Cc1cnc(N[C@H]2CC[C@@H](NC(=O)c3ccc(Cl)cc3)CC2)nc1N(C)C,1590
2,CN(C)c1nc(N[C@H]2CC[C@@H](NC(=O)c3ccc(F)c(F)c3)CC2)nc2ccccc12,104

# Molecular target: Melanin-concentrating hormone receptor 1 (Homo sapiens, UniProt Q99705)
# Sequence (Q99705 whole entry, looked up): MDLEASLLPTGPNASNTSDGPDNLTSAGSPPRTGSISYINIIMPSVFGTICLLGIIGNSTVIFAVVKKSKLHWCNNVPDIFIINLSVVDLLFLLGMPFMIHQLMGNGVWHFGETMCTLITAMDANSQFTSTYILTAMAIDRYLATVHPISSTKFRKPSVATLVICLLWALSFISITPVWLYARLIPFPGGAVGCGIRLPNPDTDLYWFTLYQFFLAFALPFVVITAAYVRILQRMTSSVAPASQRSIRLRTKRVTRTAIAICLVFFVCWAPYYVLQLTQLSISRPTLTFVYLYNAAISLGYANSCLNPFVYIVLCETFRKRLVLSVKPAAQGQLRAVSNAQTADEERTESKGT
# Assay: Antagonist activity at CART form of human MCH1 receptor expressed in HEK293 cells coexpressing Galphaq assessed as inhibition of MCH-induced intracellular calcium level by FLIPR assay
# Type: functional, cell-based
row,SMILES,IC50 [nM]
1,Cc1cnc(N[C@H]2CC[C@@H](NC(=O)c3ccc(Cl)cc3)CC2)nc1N(C)C,10

# Test system: not listed separately
# Assay: Ratio of drug level in brain to plasma in po dosed rat
# Type: ADME, organism-based
row,SMILES,Kp
1,CN(C)c1nc(N[C@H]2CC[C@@H](NC(=O)c3ccc(F)c(F)c3)CC2)nc2ccccc12,0.5

# Molecular target: T2, 5-hydroxytryptamine receptor 1A (Homo sapiens, UniProt P08908)
# T2 sequence (P08908 whole entry): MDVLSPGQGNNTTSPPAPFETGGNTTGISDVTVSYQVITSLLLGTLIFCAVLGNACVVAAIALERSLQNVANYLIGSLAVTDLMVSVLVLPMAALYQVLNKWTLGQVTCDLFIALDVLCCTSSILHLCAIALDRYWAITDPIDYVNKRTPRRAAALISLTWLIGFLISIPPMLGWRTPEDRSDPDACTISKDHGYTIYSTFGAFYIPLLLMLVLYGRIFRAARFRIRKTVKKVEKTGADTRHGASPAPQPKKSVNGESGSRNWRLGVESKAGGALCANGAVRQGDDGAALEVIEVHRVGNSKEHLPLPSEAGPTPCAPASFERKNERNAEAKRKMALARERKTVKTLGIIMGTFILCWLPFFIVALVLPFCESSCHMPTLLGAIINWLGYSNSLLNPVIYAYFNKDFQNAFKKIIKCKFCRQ
# Assay: Inhibition of human 5HT1A
row,SMILES,IC50 [nM]
1,CN(C)c1nc(N[C@H]2CC[C@@H](NC(=O)c3ccc(F)c(F)c3)CC2)nc2ccccc12,16.9

# Molecular target: T3, Alpha-1A adrenergic receptor (Homo sapiens, UniProt P35348)
# T3 sequence (P35348 whole entry): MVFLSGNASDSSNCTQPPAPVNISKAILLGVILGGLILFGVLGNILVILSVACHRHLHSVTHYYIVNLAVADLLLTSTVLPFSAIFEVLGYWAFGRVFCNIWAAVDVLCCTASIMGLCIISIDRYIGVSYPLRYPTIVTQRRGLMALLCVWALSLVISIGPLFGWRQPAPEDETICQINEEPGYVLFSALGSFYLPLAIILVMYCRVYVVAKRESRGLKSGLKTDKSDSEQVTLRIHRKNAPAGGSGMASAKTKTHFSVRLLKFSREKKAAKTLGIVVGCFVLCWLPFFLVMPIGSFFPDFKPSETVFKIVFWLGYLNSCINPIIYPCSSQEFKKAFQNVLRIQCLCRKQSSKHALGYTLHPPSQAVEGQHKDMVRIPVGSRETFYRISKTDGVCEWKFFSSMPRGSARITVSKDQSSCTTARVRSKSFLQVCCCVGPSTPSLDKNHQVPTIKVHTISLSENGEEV
# Assay: Displacement of [3H]prazosin from human adrenergic alpha1A receptor
row,SMILES,IC50 [nM]
1,Cc1cnc(N[C@H]2CC[C@@H](NC(=O)c3ccc(Cl)cc3)CC2)nc1N(C)C,> 10000
2,CN(C)c1nc(N[C@H]2CC[C@@H](NC(=O)c3ccc(F)c(F)c3)CC2)nc2ccccc12,300

# Test system: not listed separately
# Assay: Drug level in Sprague-Dawley rat brain at 10 mg/kg, po after 2 hrs
# Type: ADME, organism-based
# Parameters: dose 10 mg/kg, route oral
row,SMILES,concentration at 2 h [ng/g]
1,CN(C)c1nc(N[C@H]2CC[C@@H](NC(=O)c3ccc(F)c(F)c3)CC2)nc2ccccc12,55

# Molecular target: T4, 5-hydroxytryptamine receptor 2B (Homo sapiens, UniProt P41595)
# T4 sequence (P41595 whole entry): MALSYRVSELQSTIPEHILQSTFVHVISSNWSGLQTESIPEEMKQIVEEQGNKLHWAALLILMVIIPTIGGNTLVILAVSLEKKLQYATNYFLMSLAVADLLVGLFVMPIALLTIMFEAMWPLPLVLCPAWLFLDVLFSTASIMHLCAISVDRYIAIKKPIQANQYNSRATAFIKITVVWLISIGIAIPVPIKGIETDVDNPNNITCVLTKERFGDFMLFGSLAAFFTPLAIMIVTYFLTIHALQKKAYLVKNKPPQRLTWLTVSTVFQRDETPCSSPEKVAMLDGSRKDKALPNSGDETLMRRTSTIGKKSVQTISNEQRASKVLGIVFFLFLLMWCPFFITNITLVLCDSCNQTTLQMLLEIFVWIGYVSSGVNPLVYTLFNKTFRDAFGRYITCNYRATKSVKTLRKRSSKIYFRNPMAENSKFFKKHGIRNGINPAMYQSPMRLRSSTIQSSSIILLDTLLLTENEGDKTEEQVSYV
# Assay: Displacement of [3H]rauwolsine from human 5HT2B receptor
row,SMILES,IC50 [nM]
1,Cc1cnc(N[C@H]2CC[C@@H](NC(=O)c3ccc(Cl)cc3)CC2)nc1N(C)C,300
2,CN(C)c1nc(N[C@H]2CC[C@@H](NC(=O)c3ccc(F)c(F)c3)CC2)nc2ccccc12,150

# Molecular target: Histamine H1 receptor (Homo sapiens, UniProt P35367)
# Sequence (P35367 whole entry): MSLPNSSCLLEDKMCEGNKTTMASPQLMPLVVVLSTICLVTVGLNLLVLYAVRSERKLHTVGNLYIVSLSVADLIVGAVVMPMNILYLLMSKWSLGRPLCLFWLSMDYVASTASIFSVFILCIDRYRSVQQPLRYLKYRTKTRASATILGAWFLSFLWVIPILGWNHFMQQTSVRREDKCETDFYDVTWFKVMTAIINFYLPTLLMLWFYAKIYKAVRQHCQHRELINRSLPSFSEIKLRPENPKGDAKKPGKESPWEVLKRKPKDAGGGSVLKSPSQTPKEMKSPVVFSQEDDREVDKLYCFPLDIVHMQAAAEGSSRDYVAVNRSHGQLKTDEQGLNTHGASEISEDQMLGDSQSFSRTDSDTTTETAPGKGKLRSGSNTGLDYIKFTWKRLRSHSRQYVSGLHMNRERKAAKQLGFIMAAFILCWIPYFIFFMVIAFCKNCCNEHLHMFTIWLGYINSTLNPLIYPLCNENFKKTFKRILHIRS
# Assay: Displacement of [3H]pyrilamine from human histamine H1 receptor
row,SMILES,IC50 [nM]
1,Cc1cnc(N[C@H]2CC[C@@H](NC(=O)c3ccc(Cl)cc3)CC2)nc1N(C)C,760
2,CN(C)c1nc(N[C@H]2CC[C@@H](NC(=O)c3ccc(F)c(F)c3)CC2)nc2ccccc12,150

# Test system: not listed separately
# Assay: Plasma concentration in Sprague-Dawley rat at 10 mg/kg, po after 4 hrs
# Type: ADME, organism-based
# Parameters: dose 10 mg/kg, route oral
row,SMILES,concentration at 4 h [ng/mL]
1,CN(C)c1nc(N[C@H]2CC[C@@H](NC(=O)c3ccc(F)c(F)c3)CC2)nc2ccccc12,101

# Test system: not listed separately
# Assay: Plasma concentration in Sprague-Dawley rat at 10 mg/kg, po after 2 hrs
# Type: ADME, organism-based
# Parameters: dose 10 mg/kg, route oral
row,SMILES,concentration at 2 h [ng/mL]
1,CN(C)c1nc(N[C@H]2CC[C@@H](NC(=O)c3ccc(F)c(F)c3)CC2)nc2ccccc12,109

# Molecular target: T4, 5-hydroxytryptamine receptor 2B
# Assay: Displacement of [125I]LSD from human 5HT2B receptor
row,SMILES,IC50 [nM]
1,CN(C)c1nc(N[C@H]2CC[C@@H](NC(=O)c3ccc(F)c(F)c3)CC2)nc2ccccc12,9.66
